Data as given in patent US20250283041A1, “METHODS FOR PRODUCING RED BLOOD CELLS” (Albert Einstein College of Medicine, priority 2022, published 2025).

System: cells from the A4 clone (hemizygous D816V kit iPSC line)
Assay: Enucleation rate by flow cytometry using DRAQ5 (PSC-RED protocol without SCF and Epo)
Format: cell-based, human
Conditions: clone A4, 200 nM dasatinib introduced starting at day 35, read at day 41; without dasatinib about 18%
Method: Enucleation: The enucleation rate was measured using the DRAQ5 DNA nuclear stain (ThermoFisher) after exclusion of dead cells with Propidium Iodide. The cells were analyzed with an Aurora flow cytometer (Cytek) flow cytometer, and the flow cytometry data were analyzed with the Flowjo software.
To assess the effect of the D816V kit mutation, control 01 iPSCs were differentiated, and hemizygous clone A4 and homozygous and B34 were randomly selected using the PSC-RED protocol with or without SCF and Epo (FIG. 3A). Dasatinib, which can be used to inhibit the activity of the D816V SCF receptor, was also included in some experiments. Cells were counted once a week, and differentiation was evaluated by flow cytometry, methyl-cellulose assays, and microscopy after Romanowsky staining.
The rate of enucleation was determined by flow cytometry using DRAQ5, a cell permeant DNA dye. Since no cytokines are necessary after day 17 in the PSC-RED protocol in the absence of SCF and Epo, the only trigger left to induce terminal differentiation is the removal of dexamethasone and introduction of RU-4816, a glucocorticoid antagonist (FIG. 2A).

Cc1nc(Nc2ncc(C(=O)Nc3c(C)cccc3Cl)s2)cc(N2CCN(CCO)CC2)n1 [dasatinib]
enucleation rate: about 25%
